Assay results: paper PMC6751662, “Pharmacological and functional similarities of the human neuropeptide Y system in C. elegans challenges phylogenetic views on the FLP/NPR system” (Cell Communication and Signaling : CCS, 2019)

Legend:
Type in all cases: cell-based, C. elegans
NPR-4b [1] = molecular target: T1, NPR-4b (Caenorhabditis elegans, UniProt A0A078BTK0); test: IP accumulation assay, endogenous Gαq + mock, NPR-4b; details: 1 h, HBSS + 20 mM LiCl, HEK293 receptor + empty vector, HTRF IP-One, mean of >=3 independent experiments
T1 sequence (A0A078BTK0 1-376): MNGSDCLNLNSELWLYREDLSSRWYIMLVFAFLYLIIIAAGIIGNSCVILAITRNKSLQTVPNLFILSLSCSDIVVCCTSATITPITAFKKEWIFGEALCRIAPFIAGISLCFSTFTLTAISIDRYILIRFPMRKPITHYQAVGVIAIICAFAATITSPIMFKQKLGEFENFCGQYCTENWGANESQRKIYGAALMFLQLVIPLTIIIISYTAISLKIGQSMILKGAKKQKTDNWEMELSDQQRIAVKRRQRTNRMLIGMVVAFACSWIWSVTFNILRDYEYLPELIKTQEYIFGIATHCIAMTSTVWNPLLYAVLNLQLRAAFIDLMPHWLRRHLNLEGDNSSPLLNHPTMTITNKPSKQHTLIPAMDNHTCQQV
Protocol: (§1) For measuring IP accumulation, HEK293 cells grown to 70–80% confluency in 6-well plates were transiently co-transfected using Metafectene Pro (2.5 μl/μg DNA; Biontex) with plasmids containing receptor and/or mock (empty pcDNA3.1) (for endogenous Gq-coupling) using 4 μg total DNA in a ratio of 3:1 following the manufacturer’s instructions. For testing Gα16- and GαΔ6qi4myr-coupling, plasmids encoding the corresponding Gα protein were co-transfected instead of mock. Gα16 is naturally promiscuous and stimulates the phospholipase C (PLC) pathway leading to IP production, while the exchange of the C-terminal four amino acids of Gαq for the corresponding residues of Gαi1 in the chimeric GαΔ6qi4myr confers the ability to couple to Gi/o protein-preferring receptors but still stimulate PLC, thus specifically redirecting downstream cellular signaling. 16 h post transfection, the cells were seeded into white 384-well plates at a density of 20,000 cells/well. Media was removed 24 h later and the cells were incubated with the indicated concentration of peptides for 1 h in HBSS + 20 mM LiCl. IP accumulation was measured with the HTRF-based IP-One Gq kit (Cisbio) on a microplate reader (Tecan Spark).
(§2) For in vitro activation, data is presented as mean ± SEM of at least three independent experiments conducted in technical triplicate. […]

NPR-6 [2] = test: cAMP reporter gene assay, Gs (no forskolin), NPR-6; details: no forskolin, 4 h, transiently transfected HEK293, CRE-luciferase reporter, mean of >=3 independent experiments
Protocol: (§3) Activation of Gs and Gi/o was assessed with a cAMP reporter gene assay. HEK293 cells grown to 70–80% confluency in 6-well plates were transiently co-transfected with vectors encoding the receptor and the cAMP reporter gene plasmid pGL4.29 [luc2P/CRE/Hygro] (Promega; 4 μg total, 1:1 ratio) using Metafectene Pro (3 μl/μg DNA; Biontex) following the manufacturer’s instructions. 16 h post transfection, the cells were seeded into white 384-well plates at a density of 20,000 cells/well. On the next day, the medium was removed and the cells were stimulated with 20 μl of peptide solution (or forskolin as positive control) in serum-free DMEM for 4 h. For measuring Gi/o activity, the peptide solutions additionally contained 1 μM forskolin to elevate cellular cAMP levels. After incubation, the luciferase substrate OneGlo in lysis buffer (Promega) was added and the luminescence was measured in a microplate reader Tecan Spark (Tecan). Data were analyzed with GraphPad Prism 5.03 and are shown as fold of basal or fold of forskolin in case of Gαi/o activity.
(§4) For in vitro activation, data is presented as mean ± SEM of at least three independent experiments conducted in technical triplicate. […] For the C. elegans NPRs, we considered the strongest response elicited by any of the peptides downstream of a particular receptor as the receptor’s maximal signal. This may or may not be the biological maximum that can be reached by the ‘true’ endogenous agonist. For the human receptors, the response to the established endogenous agonist reflected the maximal signal.

NPR-11 [3] = molecular target: T2, NPR-11 (Caenorhabditis elegans, UniProt Q18179); test: IP accumulation assay, endogenous Gαq + mock, NPR-11; details: 1 h, HBSS + 20 mM LiCl, HEK293 receptor + empty vector, HTRF IP-One, mean of >=3 independent experiments
T2 construct: expressed in transfected cells; host or cells: HEK293, transient
T2 sequence (Q18179 1-402): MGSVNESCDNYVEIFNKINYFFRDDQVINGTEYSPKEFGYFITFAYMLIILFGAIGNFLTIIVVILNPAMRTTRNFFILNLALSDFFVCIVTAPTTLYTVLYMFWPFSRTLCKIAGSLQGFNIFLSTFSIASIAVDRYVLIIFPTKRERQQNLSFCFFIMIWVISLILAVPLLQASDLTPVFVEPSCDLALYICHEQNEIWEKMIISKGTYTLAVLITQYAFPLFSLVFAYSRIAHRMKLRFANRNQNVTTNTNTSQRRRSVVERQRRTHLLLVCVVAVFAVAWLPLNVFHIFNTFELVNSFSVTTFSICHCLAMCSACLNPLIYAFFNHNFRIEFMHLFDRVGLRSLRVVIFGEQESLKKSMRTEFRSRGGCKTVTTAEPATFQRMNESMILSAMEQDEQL
Protocol: as §1, §2

NPR-4b [4] = molecular target: T1, NPR-4b; test: cAMP reporter gene assay, Gs (no forskolin), NPR-4b; details: no forskolin, 4 h, transiently transfected HEK293, CRE-luciferase reporter, mean of >=3 independent experiments
Protocol: as §3, §4

NPR-3 = molecular target: T3, NPR-3 (Caenorhabditis elegans, UniProt P90745); test: IP accumulation assay, co-transfected Gα16, NPR-3; details: 1 h, HBSS + 20 mM LiCl, HEK293 receptor + Gα16, HTRF IP-One, mean of >=3 independent experiments
T3 construct: expressed in transfected cells; host or cells: HEK293
T3 sequence (P90745 1-376): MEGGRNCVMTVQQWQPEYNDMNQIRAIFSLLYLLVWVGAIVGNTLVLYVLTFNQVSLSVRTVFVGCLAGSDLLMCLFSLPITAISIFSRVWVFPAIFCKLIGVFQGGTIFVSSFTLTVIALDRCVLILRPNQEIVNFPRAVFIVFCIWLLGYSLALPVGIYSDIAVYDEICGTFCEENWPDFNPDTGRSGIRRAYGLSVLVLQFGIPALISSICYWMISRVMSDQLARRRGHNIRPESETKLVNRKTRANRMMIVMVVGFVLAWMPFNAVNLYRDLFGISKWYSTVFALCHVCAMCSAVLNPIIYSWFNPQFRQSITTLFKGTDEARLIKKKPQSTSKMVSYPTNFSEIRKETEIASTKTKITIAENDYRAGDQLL
Protocol: as §1, §2

NPR-6 [5] = test: IP accumulation assay, endogenous Gαq + mock, NPR-6; details: 1 h, HBSS + 20 mM LiCl, HEK293 receptor + empty vector, HTRF IP-One, mean of >=3 independent experiments
Protocol: as §1, §2

NPR-11 [6] = molecular target: T2, NPR-11; test: cAMP reporter gene assay, Gs (no forskolin), NPR-11; details: no forskolin, 4 h, transiently transfected HEK293, CRE-luciferase reporter, mean of >=3 independent experiments
Protocol: as §3, §4

[7] = 0.1 nM peptide (so in the source)

IP assay endog. Gαq + mock, NPR-4b (NPR-4b [1]; [7]): 0.98 x-fold of basal
IP assay endog. Gαq + mock, NPR-4b (NPR-4b [1]; 10 µM peptide): 0.99 x-fold of basal
IP assay endog. Gαq + mock, NPR-11 (NPR-11 [3]; [7]): 1.05 x-fold of basal
IP assay endog. Gαq + mock, NPR-11 (NPR-11 [3]; 10 µM peptide): 1.09 x-fold of basal
cAMP assay Gs, NPR-4b (NPR-4b [4]; 0.1 µM peptide): 0.89 x-fold of basal
cAMP assay Gs, NPR-4b (NPR-4b [4]; 10 µM peptide): 0.92 x-fold of basal
IP assay endog. Gαq + Gα16, NPR-3 (NPR-3; [7]): 0.93 x-fold of basal
IP assay endog. Gαq + Gα16, NPR-3 (NPR-3; 10 µM peptide): 0.81 x-fold of basal
cAMP assay Gs, NPR-11 (NPR-11 [6]; 0.1 µM peptide): 0.70 x-fold of basal
cAMP assay Gs, NPR-11 (NPR-11 [6]; 10 µM peptide): 0.69 x-fold of basal
Substance: APKPKFIRF-NH2 [FLP-5-1, C. elegans FMRFamide-like peptide, C-terminally amidated, synthesized by SPPS]
cAMP assay Gs, NPR-6 (NPR-6 [2]; 0.1 µM peptide): 0.68 x-fold of basal
cAMP assay Gs, NPR-6 (NPR-6 [2]; 10 µM peptide): 0.57 x-fold of basal
IP assay endog. Gαq + mock, NPR-6 (NPR-6 [5]; [7]): 0.92 x-fold of basal
IP assay endog. Gαq + mock, NPR-6 (NPR-6 [5]; 10 µM peptide): 0.95 x-fold of basal
